Measured values: patent US4414226A, “1,4-Naphtoquinone derivatives and their use in treating coccidiosis” (Fujisawa Pharmaceutical Co., Ltd., priority 1980, dated 1983)

Columns and labels:
Stability = format: physicochemical
Solubility = format: physicochemical
Eimeria tenella = assay: coccidium infection and treatment test in the chicken (Test example 1, Table 1); format: in vivo, Eimeria tenella; male white Leghorn chickens; parameters: Lesion score: scale not given here; details: for Lesion score: 3 times a day for 3 days, cecal lesions; for Weight gain index: noninfected group = 100
Method: (1) A coccidium infection and treatment test in the chicken
Male white Leghorn chickens, aged 2 weeks and with a mean body weight of 100 g, were treated with two representative examples of product compound (I) and Monensin, a control drug, at the various dose levels indicated in Table 1. Each compound and drug was suspended in a 1% aqueous solution of gum arabic and 2 ml per dose of the suspension was administered 3 times a day for 3 consecutive days. Birds in the untreated control groups were given 2 ml per dose of a 1% aqueous solution of gum arabic only in otherwise the same manner.
Immediately after the first dosing, birds in the infected groups were orally inoculated with 3.0×10^4 /bird of oocysts of Eimeria tenella. Body weights were taken at the first treatment and on the 3rd day after the entire course of treatment to investigate changes in body weight. Immediately after the second taking of body weights, the birds were terminated and autopsied to examine and score the cecal lesions.
Dosage: The total dose (mg) given to each bird during the test period.
Weight gain index: These indices were computed with the body weight gain
of birds in the noninfected group being taken as 100.
Three birds were assigned to each of the infected-non-treated groups, non-infected groups, the monencin group and the (Ia-A) groups, and the weight gain indices were computed from the mean body weight values for 3 birds. The (Ia-B) groups each consisted of a bird only.

[1] = total dose 40 mg per bird, oral
[2] = 30 minutes in 50° C. solution at pH 2
[3] = 30 minutes in 50° C. solution at pH 10

Row | Solubility (Solubility; acetone) | Solubility (Solubility; chloroform) | Solubility (Solubility; ethanol) | Solubility (Solubility; methanol) | Solubility (Solubility; water) | Stability (Stability; [2]) | Stability (Stability; [3]) | Solubility (Solubility; ethyl acetate) | SMILES | Lesion score (Eimeria tenella; total dose 1.25 mg per bird) | Weight gain index (Eimeria tenella; total dose 1.25 mg per bird) | Lesion score (Eimeria tenella; total dose 2.5 mg per bird) | Weight gain index (Eimeria tenella; total dose 2.5 mg per bird) | Lesion score (Eimeria tenella; total dose 5 mg per bird) | Weight gain index (Eimeria tenella; total dose 5 mg per bird) | Lesion score (Eimeria tenella; total dose 10 mg per bird) | Weight gain index (Eimeria tenella; total dose 10 mg per bird) | Lesion score (Eimeria tenella; total dose 20 mg per bird) | Weight gain index (Eimeria tenella; total dose 20 mg per bird) | Lesion score (Eimeria tenella; [1]) | Weight gain index (Eimeria tenella; total dose 40 mg per bird) | also measured
1 | Sparingly soluble | Sparingly soluble | Sparingly soluble | Sparingly soluble | Insoluble | – | – | – | COc1cc(C)cc2c(=O)oc3c(c12)C(=O)c1cccc(O)c1C3=O [(Ia-A), 8-hydroxy-1-methoxy-3-methyl-7,12-dihydro-5H-benzo[d]naphtho[2,3-b]pyran-5,7,12-trione] | 2.0 | 108 | 2.0 | 92 | 0.3 | 97 | 0 | 106 | 0 | 108 | 0 | 95 | Stability (Stability; acid solutions): Instable; Stability (Stability; alkaline solutions): Instable; Solubility (Solubility; dimethyl sulfoxide): Partially soluble; Solubility (Solubility; tetrahydrofuran): Partially soluble
2 | Readily soluble | Readily soluble | Readily soluble | Readily soluble | Insoluble | Stable | Stable | Readily soluble | COc1cc(C)cc(C(=O)O)c1C1=CC(=O)c2c(O)cccc2C1=O [(Ia-B), 2-(5-hydroxy-1,4-naphthoquinon-2-yl)-3-methoxy-5-methylbenzoic acid] | – | – | 3 | 68 | 0 | 80 | 0 | 95 | 0 | 90 | 0 | 102 | Solubility (Solubility; benzene): Insoluble; Solubility (Solubility; hexane): Insoluble
3 | Partially soluble | – | Readily soluble | Readily soluble | Insoluble | Stable | Stable | Partially soluble | COc1cc(C)cc(C(=O)O)c1C1=C(O)C(=O)c2c(O)cccc2C1=O [(Ia-C), 2-(3,5-dihydroxy-1,4-naphthoquinon-2-yl)-3-methoxy-5-methylbenzoic acid] | – | – | – | – | – | – | – | – | – | – | – | – | Solubility (Solubility; ether): Insoluble; Solubility (Solubility; hexane): Insoluble
4 | – | – | – | – | – | – | – | – | CC[C@@]1([C@@H]2O[C@@H]([C@H]3O[C@@](O)(CO)[C@H](C)C[C@@H]3C)C[C@@H]2C)CC[C@H]([C@]2(C)CC[C@]3(C[C@H](O)[C@@H](C)[C@@H]([C@@H](C)[C@@H](OC)[C@H](C)C(=O)O)O3)O2)O1 [Monensin, reference compound] | 4.0 | 99 | 2.7 | 92 | 2.3 | 98 | 0 | 68 | 0 | 51 | 0 | 41 | –
